From patent publication US20190367516A1 (Bayer Pharma Aktiengesellschaft, priority 2015, published 2019) come the findings set out here.

In assay [1] the target is T1, human M2 receptor (Homo sapiens, UniProt P08172).
T1 sequence (P08172 1-466): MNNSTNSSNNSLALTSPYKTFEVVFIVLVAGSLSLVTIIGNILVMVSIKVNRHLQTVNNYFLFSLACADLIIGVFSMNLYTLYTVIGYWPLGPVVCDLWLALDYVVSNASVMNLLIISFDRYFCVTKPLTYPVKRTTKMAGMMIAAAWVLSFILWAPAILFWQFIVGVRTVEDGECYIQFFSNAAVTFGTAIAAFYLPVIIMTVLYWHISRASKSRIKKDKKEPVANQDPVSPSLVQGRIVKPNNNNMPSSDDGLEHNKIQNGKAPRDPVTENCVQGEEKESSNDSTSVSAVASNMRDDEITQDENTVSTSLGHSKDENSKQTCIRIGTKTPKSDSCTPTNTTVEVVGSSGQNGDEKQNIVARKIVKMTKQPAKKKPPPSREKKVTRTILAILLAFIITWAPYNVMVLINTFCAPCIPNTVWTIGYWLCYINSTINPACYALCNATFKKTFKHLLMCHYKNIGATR
Format: cell-based. To be noted: α >1 = positive cooperativity.

For assay [2], the system named is anaesthetized rats. As to the kind of experiment: Effects on the heart rate in anaesthetized rats (B-9). Format: in vivo, rat. As to conditions: i.v. infusion via jugular vein over 5 min, dose not given, in some cases means of several determinations. Here is the method: B-9. Effects of the Test Substances on the Heart Rate in Anaesthetized Rats
Male rats of the strain (WI) WU Br from the breeder Charles River are anaesthetized initially with a 4-5% isoflurane inhalation for approx. 3 min. Subsequently, anaesthesia is maintained using a 1.5% isoflurane inhalation. For this purpose, the anaesthetized animals are fixed on a heated operating plate. By means of visual inspection and between toe reflex, the depth of anaesthesia is checked.
For the application of the test substance, an i.v. route into the jugular vein is used. A caudal to cranial skin incision is then made longitudinally and both the cervical musculature and the salivary glands are severed. The right common carotid artery is exposed and blood supply is arrested both proximally and distally. Using microinstrumentation, a TIP catheter (1.2 F) is introduced into the vessel in order to measure the arterial pressure and the heart rate.
Initially, both parameters are monitored for 10 min in the basal state without substance addition. The substances to be investigated are dissolved in suitable solvent mixtures and subsequently administered at various dosages to a group of animals in each case via the jugular vein by an infusion pump over 5 min. A solvent-treated group is used as control under the same experimental conditions. The arterial blood pressure and heart rate with substance addition is determined for 20 min. The data are registered with the PowerLab system (AD instruments) and evaluated using the LabChart program (AD instruments).
The values determined in this manner for the percentage decrease in heart rate for individual working examples are given in Table 4 below (in some cases as means of a plurality of independent individual determinations): […]

In assay [3] the target is T1, human M2 receptor.
[4] abbreviates: shift of acetylcholine dose-response curve (Allosteric EC50 shift).
Where [5] appears, read: Receptor activity EC50, allosteric potency at EC20 acetylcholine, M2-GIRK1/4 reporter cells, in some cases mean of two or more determinations.
The mark [6] stands for this setting: read-out: Efficiency, boosting of the acetylcholine effect at EC20 acetylcholine concentration, M2-GIRK1/4 reporter cells.
[7] abbreviates: shift in the acetylcholine dose-response curve (Allosteric EC50 shift, GraphPad PRISM).
The mark [8] stands for this setting: Receptor activity EC50, M2-GIRK1/4 activation test, acetylcholine at EC20, allosteric potency, in some cases mean values from two or more determinations.

The structures appear in SMILES notation. Read-outs that look alike come from different tables or passages of the source.

Consider `CC(C)(CC(F)(F)F)NC(=O)c1cn(-c2c(F)cc(F)cc2F)c2nc(N3C[C@@H](O)CC3=O)ccc2c1=O` [Example 511, 7-[(4S)-4-Hydroxy-2-oxopyrrolidin-1-yl]-4-oxo-N-(4,4,4-trifluoro-2-methylbutan-2-yl)-1-(2,4,6-trifluorophenyl)-1,4-dihydro-1,8-naphthyridine-3-carboxamide], for which, in assay [1] (setting [4]), the “Cooperativity (alpha factor)” value came to 30. Further, in assay [2], the “Reduction in heart rate (%)” value came out at 10%. This compound also showed an EC50 in assay [3] (setting [5]) of 9 nM. In assay [3] (setting [6]), the Emax was determined as 100%.
Consider `CC(NC(=O)c1cn(-c2c(F)cc(F)cc2F)c2nc(N3C[C@@H](O)[C@H](O)C3)ccc2c1=O)C(F)(F)C(F)(F)F` (single isomer, unassigned) [Example 550], for which the “Cooperativity (alpha factor)” value in assay [1] (setting [4]) is given as 34. Also, in assay [2], the “Reduction in heart rate (%)” value came out at 13%. Also, the Emax in assay [3] (read-out: Efficiency) was 100%.
Turning to `CC(NC(=O)c1cn(-c2c(F)cc(F)cc2F)c2nc(N3CCNC3=O)ccc2c1=O)C(F)(F)C(F)(F)F` (racemic) [Example 541, 4-Oxo-7-(2-oxoimidazolidin-1-yl)-N-[3,3,4,4,4-pentafluorobutan-2-yl]-1-(2,4,6-trifluorophenyl)-1,4-dihydro-1,8-naphthyridine-3-carboxamide], the “Cooperativity (alpha factor)” value in assay [1] (setting [4]) was 31. Further, the “Reduction in heart rate (%)” value in assay [2] turned out to be 14%. For the same compound, in assay [3] (setting [5]), the EC50 is 7 nM. This compound also gave an Efficiency in assay [3] (boosting of the acetylcholine effect at EC20 acetylcholine concentration, M2-GIRK1/4 reporter cells) of 92.2%.
On to `CC[C@@H](NC(=O)c1cn(-c2ccc(F)cc2F)c2nc(N3CC[C@H](F)C3)ccc2c1=O)C(F)(F)F` [Example 189, 1-(2,4-Difluorophenyl)-7-[(3S)-3-fluoropyrrolidin-1-yl]-4-oxo-N-[(2R)-1,1,1-trifluorobutan-2-yl]-1,4-dihydro-1,8-naphthyridine-3-carboxamide], for which the “Cooperativity (alpha factor)” value in assay [1] (setting [7]) is 24. Further, the “Reduction in heart rate (%)” value in assay [2] came out at 7%. The 50% effective concentration (EC50) in assay [3] (setting [8]) is 23 nM.
On to `O=C(N[C@H](C1CC1)C(F)(F)F)c1cn(-c2c(F)cc(F)cc2Cl)c2nc(N3C[C@@H](O)CC3=O)ccc2c1=O` [Example 414, 1-(2-Chloro-4,6-difluorophenyl)-N-[(1R)-1-cyclopropyl-2,2,2-trifluoroethyl]-7-[(4S)-4-hydroxy-2-oxopyrrolidin-1-yl]-4-oxo-1,4-dihydro-1,8-naphthyridine-3-carboxamide], for which, in assay [1] (setting [4]), the “Cooperativity (alpha factor)” value is on record as 40. For the same compound, the “Reduction in heart rate (%)” value in assay [2] is on record as 16%. The EC50 in assay [3] (setting [5]) was found to be 9 nM. Moreover, in assay [3] (setting [6]), the Emax was 100%.
As for `CC[C@H](NC(=O)c1cn(-c2c(F)cc(F)cc2F)c2nc(N3C[C@@H](O)CC3=O)ccc2c1=O)C(F)(F)F` [Example 332, 7-[(4S)-4-Hydroxy-2-oxopyrrolidin-1-yl]-4-oxo-N-[(2S)-1,1,1-trifluorobutan-2-yl]-1-(2,4,6-trifluorophenyl)-1,4-dihydro-1,8-naphthyridine-3-carboxamide], in assay [1] (setting [7]), the “Cooperativity (alpha factor)” value turned out to be 37. In addition, in assay [2], the “Reduction in heart rate (%)” value was 11%. The EC50 in assay [3] (setting [8]) was determined as 20 nM. In addition, in assay [3] (read-out: Efficiency), the Emax was determined as 99.2%.
Regarding `O=C(Nc1c(Cl)cccc1Cl)c1cn(-c2ccc(F)cc2F)c2nc(N3C[C@@H](O)CC3=O)ccc2c1=O` [Example 201, N-(2,6-Dichlorophenyl)-1-(2,4-difluorophenyl)-7-[(4S)-4-hydroxy-2-oxopyrrolidin-1-yl]-4-oxo-1,4-dihydro-1,8-naphthyridine-3-carboxamide], in assay [1] (setting [7]), the “Cooperativity (alpha factor)” value came to 39. Also, the “Reduction in heart rate (%)” value in assay [2] is given as 6%. In assay [3] (setting [8]), this compound showed an EC50 of 39 nM.
With `CC[C@H](NC(=O)c1cn(-c2ccc(F)cc2F)c2nc(N3C[C@@H](O)CC3=O)ccc2c1=O)C(F)(F)F` [Example 174, 1-(2,4-Difluorophenyl)-7-[(4S)-4-hydroxy-2-oxopyrrolidin-yl]-4-oxo-N-[(2S)-1,1,1-trifluorobutan-2-yl]-1,4-dihydro-1,8-naphthyridine-3-carboxamide], the “Reduction in heart rate (%)” value in assay [2] stood at 7%. In assay [3] (setting [8]), this compound registered an EC50 of 113 nM. For the same compound, the Emax in assay [3] (read-out: Efficiency) is 98.6%.
`O=C(N[C@@H](C1CC1)C(F)(F)F)c1cn(-c2ccc(F)cc2F)c2nc(N3C[C@@H](O)CC3=O)ccc2c1=O` (single isomer, unassigned) [Example 284]: the “Reduction in heart rate (%)” value in assay [2] is given as 11%. In assay [3] (setting [8]), the EC50 is 61 nM.
As for `O=C(N[C@H](C1CC1)C(F)(F)F)c1cn(-c2c(F)cc(F)cc2F)c2nc(N3CCNC3=O)ccc2c1=O` [Example 342, N-[(1R)-1-Cyclopropyl-2,2,2-trifluoroethyl]-4-oxo-7-(2-oxoimidazolidin-1-yl)-1-(2,4,6-trifluorophenyl)-1,4-dihydro-1,8-naphthyridine-3-carboxamide], in assay [1] (setting [7]), the “Cooperativity (alpha factor)” value was 13. For the same compound, the “Reduction in heart rate (%)” value in assay [2] was 10%. Moreover, in assay [3] (setting [8]), the midpoint of the response, the EC50, lay at 11 nM.
Turning to `O=C(N[C@H](C1CC1)C(F)(F)F)c1cn(-c2c(F)cccc2F)c2nc(N3C[C@@H](O)CC3=O)ccc2c1=O` (single isomer, unassigned) [Example 296], the “Cooperativity (alpha factor)” value in assay [1] (setting [7]) came out at 49. For the same compound, the “Reduction in heart rate (%)” value in assay [2] was determined as 11%. In assay [3] (setting [8]), this compound registered an EC50 of 28 nM.
For the compound `CCC(NC(=O)c1cn(-c2c(F)cc(F)cc2F)c2nc(N3C[C@@H](O)[C@H](O)C3)ccc2c1=O)C(F)(F)C(F)(F)F` (single isomer, unassigned) [Example 523], the “Cooperativity (alpha factor)” value in assay [1] (setting [4]) came out at 41. Besides, the “Reduction in heart rate (%)” value in assay [2] came to 15%. In addition, the Emax in assay [3] (read-out: Efficiency) turned out to be 100%.
Take `O=C(N[C@H](C1CC1)C(F)(F)F)c1cn(-c2c(F)cc(F)cc2F)c2nc(N3C[C@@H](O)CC3=O)ccc2c1=O` [Example 386, N-[(1R)-1-Cyclopropyl-2,2,2-trifluoroethyl]-7-[(4S)-4-hydroxy-2-oxopyrrolidin-1-yl]-4-oxo-1-(2,4,6-trifluorophenyl)-1,4-dihydro-1,8-naphthyridine-3-carboxamide]: the “Cooperativity (alpha factor)” value in assay [1] (setting [7]) was determined as 39. Besides, in assay [2], the “Reduction in heart rate (%)” value amounted to 13%. Besides, it took 9 nM to reach a half-maximal effect in assay [3] (setting [8]) (EC50).
For the compound `C[C@H](NC(=O)c1cn(-c2c(F)cccc2F)c2nc(N3C[C@@H](O)CC3=O)ccc2c1=O)C(F)(F)F` [Example 329, 1-(2,6-Difluorophenyl)-7-[(4S)-4-hydroxy-2-oxopyrrolidin-1-yl]-4-oxo-N-[(2S)-1,1,1-trifluoropropan-2-yl]-1,4-dihydro-1,8-naphthyridine-3-carboxamide], in assay [1] (setting [7]), the “Cooperativity (alpha factor)” value amounted to 16. Moreover, the midpoint of the response in assay [3] (setting [8]), the EC50, lay at 76 nM.
`CCC(NC(=O)c1cn(-c2ccc(F)cc2F)c2nc(N3C[C@@H](O)CC3=O)ccc2c1=O)C(F)(F)F` (some centres unmarked) [Example 176]: in assay [1] (setting [7]), the “Cooperativity (alpha factor)” value came out at 28. Moreover, a half-maximal effect in assay [3] (setting [8]) (EC50) was put at 95 nM. Further, the Emax in assay [3] (read-out: Efficiency) is 94.1%.
For the compound `O=C(NC(c1c(F)cccc1F)C(F)(F)F)c1cn(-c2ccc(F)cc2F)c2nc(N3C[C@@H](O)CC3=O)ccc2c1=O` (single isomer, unassigned) [Example 246], in assay [1] (setting [7]), the “Cooperativity (alpha factor)” value was determined as 53. For the same compound, the EC50 in assay [3] (setting [8]) turned out to be 23 nM.
Regarding `CCC(NC(=O)c1cn(-c2ccc(F)cc2F)c2nc(N(C)CCF)ccc2c1=O)C(F)(F)F` (racemic) [Example 104, rac-1-(2,4-Difluorophenyl)-7-[(2-fluoroethyl)(methyl)amino]-4-oxo-N-[1,1,1-trifluorobutan-2-yl]-1,4-dihydro-1,8-naphthyridine-3-carboxamide], in assay [1] (setting [7]), the “Cooperativity (alpha factor)” value was determined as 15. The same compound returned an EC50 in assay [3] (setting [8]) of 28 nM.
Turning to `CC(C)(NC(=O)c1cn(-c2ccc(F)cc2F)c2nc(N3CC[C@@H](OC(F)F)C3)ccc2c1=O)c1c(F)cccc1F` [Example 188, 7-[(3R)-3-(Difluoromethoxy)pyrrolidin-1-yl]-1-(2,4-difluorophenyl)-N-[2-(2,6-difluorophenyl)propan-2-yl]-4-oxo-1,4-dihydro-1,8-naphthyridine-3-carboxamide], the “Cooperativity (alpha factor)” value in assay [1] (setting [7]) turned out to be 9. This compound also returned an EC50 in assay [3] (setting [8]) of 113 nM.
